Experiment [1] deals with T1, olfactory receptor OR8D1 (Homo sapiens, UniProt Q8WZ84).
T1 construct: expressed in transfected cells; host or cells: HEK293
T1 sequence (Q8WZ84 1-308): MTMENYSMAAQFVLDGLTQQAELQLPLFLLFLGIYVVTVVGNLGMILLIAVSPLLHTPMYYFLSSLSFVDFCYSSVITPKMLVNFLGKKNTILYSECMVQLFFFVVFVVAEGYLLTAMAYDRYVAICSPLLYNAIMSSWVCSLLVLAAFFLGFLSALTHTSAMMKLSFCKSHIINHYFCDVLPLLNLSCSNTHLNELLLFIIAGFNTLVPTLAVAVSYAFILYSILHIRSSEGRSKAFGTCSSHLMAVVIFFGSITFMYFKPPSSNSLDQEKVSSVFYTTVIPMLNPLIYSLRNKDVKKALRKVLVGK
Description: Luciferase reporter gene assay (cAMP) of olfactory receptor response to sotolone in HEK293 cells. It is filed as cell-based. From the text: (§1) On the basis of sequence information registered in GenBank, each human olfactory receptor gene was cloned by PCR with Human Genomic DNA Female (G1521: Promega Corp.) as a template. Each gene thus amplified by PCR was inserted into a pENTR vector (Invitrogen Corp.) according to the manual. A NotI-AscI site present on the pENTR vector r was recombined into a NotI-AscI site prepared downstream of Flag-Rho tag sequence on a pME18S vector.
(§2) A gene (GenBank GI: 50234917) encoding a human receptor transport protein, RTP1S was inserted into the EcoRI-XhoI site of the pME18S vector.
(§3) HEK293 cells expressing each of 400 types of human olfactory receptors were prepared. […]
(§4) The olfactory receptors expressed on the HEK293 cells are conjugated with intracellular Gas to activate adenylate cyclase, thereby increasing intracellular cAMP levels. In this study, their responses to sotolone were measured using luciferase reporter gene assay which involved monitoring increase in intracellular cAMP level as luminescence intensity derived from a firefly luciferase gene (fluc2P-CRE-hygro). […]
(§5) A medium was removed from the cultures prepared in the preceding paragraph 3). […] The luciferase activity was measured using Dual-Glo™ luciferase assay system (Promega Corp.) according to the instruction manual of the product. […]

Experiment [2] relates to the other olfactory receptors (400 types of human olfactory receptors except OR8D1). Briefly: Luciferase reporter gene assay of 400 types of human olfactory receptors, response to sotolone. Type of experiment: cell-based. Conditions: sotolone 1 mM, HEK293 cells expressing each receptor.
From the text: as §1, §2, §3, §4, §5

Experiment [3] addresses T1, olfactory receptor OR8D1. Conditions: Non-Patent Document 5; cited from earlier work.
Experiment [4] addresses T1, olfactory receptor OR8D1. Briefly: Antagonistic activity against the response of OR8D1 to sotolone (luciferase assay, rate of inhibition). Type of experiment: cell-based. Conditions: sotolone 100 μM and test substance 100 μM, OR8D1-expressing HEK293 cells. Here is the method:
228 types of test substances were examined for their antagonistic activity against the response of the olfactory receptor OR8D1 to sotolone.
Sotolone (100 μM) and each test substance (100 μM) were added to HEK293 cells allowed to express the olfactory receptor OR8D1 by the same procedures as in Example 2. The response of the olfactory receptor was measured to evaluate change in receptor response caused by the addition of the test substance.
The rate of inhibition of the receptor response by the test substance was calculated as follows: firefly luciferase-derived luminescence intensity (Y) in the olfactory receptor OR8D1-expressing cells without sotolone stimulation was subtracted from firefly luciferase-derived luminescence intensity (X) induced by stimulation with sotolone alone to determine receptor activity (X−Y) based on the stimulation with sotolone alone. Likewise, the luminescence intensity (Y) in the cells without sotolone stimulation was subtracted from luminescence intensity (Z) induced by stimulation with the mixture of sotolone and the test substance to determine receptor activity (Z−Y) in the presence of the test substance. The rate of reduction in the receptor activity (Z−Y) in the presence of the test substance with respect to the receptor activity (X−Y) based on the stimulation with sotolone alone was calculated according to an expression shown below to determine the rate of inhibition of the receptor response by the test substance. In this assay, a plurality of independent duplicate experiments was performed. An average of the experiments in each run was obtained. Rate of inhibition (%)={1−(Z−Y)/(X−Y)}×100

For `CC1=C(O)C(=O)OC1C` (stereo not drawn) [sotolone, 3-Hydroxy-4,5-dimethyl-2(5H)-furanone], in experiment [1] (sotolone 0, 3, 10, 30, 100, 300, 1000 and 3000 μM, HEK293 cells with human RTP1S), the “concentration dependence of the response of OR8D1 to sotolone” value is given as “concentration-dependent response”. For the same molecule, the “response of olfactory receptor OR8D1 to sotolone” value in experiment [1] (sotolone 1 mM, HEK293 cells expressing the receptor, 2.5 hours, fold increase of luminescence) was “exhibited a response”. The “response of the other olfactory receptors to sotolone” value in experiment [2] was “did not respond”. The “response of olfactory receptor OR8D1 induced by sotolone (reported)” value in experiment [3] is recorded as “induces the response”.

`CC(=O)c1cc2c(cc1C)C(C)(C)C(C)CC2(C)C` [Tonalid(R), 1-(5,6,7,8-tetrahydro-3,5,5,6,8,8-hexamethyl-2-naphthalenyl)-ethanone] returned an inhibition at 100 µM in experiment [4] of at least 50%.

On to `CC(C)(C)c1ccc(CCC=O)cc1` [bourgeonal, 3-(4-tert-butylphenyl)propanal], for which the inhibition at 100 µM in experiment [4] is at least 50%.

Turning to `CC(C)=CCCC(C)=CC=O` [Citral, citral], the inhibition at 100 µM in experiment [4] is at least 50%.

In turn, `CCCCCC(C=O)=Cc1ccccc1` [amylcinnamic aldehyde, 2-benzylideneheptanal] came in with an inhibition at 100 µM in experiment [4] of at least 50%.

For the molecule `C[C@@H]1CCCCCCCCCCCCC(=O)C1` [Muscone, muscone], in experiment [4], the “rate of inhibition of the response of OR8D1 to sotolone” value is recorded as 40% or more rate of.

`CC1C/C=C/CCCCCCCCCC(=O)C1` [Muscenone(R) Delta, (5E)-3-methylcyclopentadec-5-en-1-one] displayed an inhibition at 100 µM in experiment [4] of at least 50%.

On to `CC(=O)C1=C(C)C2CC3(C1)C(C)CCC3C2(C)C` (stereo not drawn) [acetylcedrene, 1-(2,3,4,7,8,8a-hexahydro-3,6,8,8-tetramethyl-1H-3a,7-methanoazulen-5-yl)-ethanone], for which the inhibition at 100 µM in experiment [4] is at least 75%.

On to `CC(=O)C1(C)CC2=C(CCCC2(C)C)CC1C` (stereo not drawn) [Iso E Super, 7-acetyl-1,2,3,4,5,6,7,8-octahydro-1,1,6,7-tetramethyl-naphthalene], for which the inhibition at 100 µM in experiment [4] was at least 50%.
